In experiment [1] the target is T1, vWF-GPIb interaction (Homo sapiens, UniProt P04275+P07359).
T1 construct: endogenous in cells; host or cells: fresh or formalin-fixed platelets
The experiment is described as follows: Ristocetin-induced binding of 125I-labeled vWF to fresh or formalin-fixed platelets. As to conditions: peptides tested individually; read-out: IC50, inhibition of binding of vWF to the GPIb of platelets by synthetic peptides. The protocol:
The assay system is based on the use of ^125 I-labeled vWF and fresh or formalin-fixed platelets; ristocetin was used to induce the binding of vWF to GPIb. After incubation for 30 minutes at 37° C., without stirring, separation of bound platelet from free vWF ligand was achieved by centrifugation through 20% sucrose in Tyrode buffer, followed by measurement of the bound radioactivity as described in Ruggeri et al., J. Clin. Invest., 72, 1-12 (1983). Nonspecific binding was evaluated for selected points by measuring the binding in the presence of a 40-fold excess of unlabeled vWF. Binding isotherms were evaluated by Scatchard-type analysis to determine binding parameters (including the estimate of nonspecific binding) using the computer-assisted program "Ligand" as described in Munson, Methods Enzymol., 92, 542-576 (1983).

The target of experiment [2] is T1, vWF-GPIb interaction. The experiment is described as follows: Inhibition of asialo-vWF binding to fresh platelets (Example 2). As to conditions: 125I-asialo-vWF 5 μg/ml. Here is the method:
Fresh platelets were prepared by drawing blood into a solution of 11 mM trisodium citrate and 2 mM EDTA. Platelet-rich plasma was then prepared by differential centrifugation. The platelet count was then adjusted to 1×10^11 /l. Peptides were then added to various concentrations and ^125 I-asialo-vWF was then added at a final concentration of 5 μg/ml. After incubation for 30 minutes at room temperature, bound and free vWF ligand were separated by centrifuging 50 μl of the mixture through 300 μl of 20% sucrose at 12,000 g for 4 minutes. The platelet pellet was then separated from the rest of the mixture to determine platelet-bound radioactivity. Non-specific binding was defined as the residual binding of ^125 I- asialo-vWF in the presence of a 50-fold excess of unlabeled vWF but in the absence of any peptides.
Percent inhibition with a given peptide was calculated by dividing the specific cpm obtained when various concentrations of peptide were added by the specific cpm in the absence of peptide.

In experiment [3] the target is T1, vWF-GPIb interaction. Briefly: Inhibition of ristocetin-induced binding of vWF to formalin-fixed platelets (Example 1). As to conditions: 125I-vWF 5 μg/ml, ristocetin 1.0 mg/ml. The protocol:
To test the inhibitory activity of the peptides of the present invention, formalin-fixed platelets were used at a final concentration of 1×10^11 /l. Assayed peptides were then added at various concentrations. One third final volume of vWF-deficient plasma was then added followed by ^125 I-vWF at a final concentration of 5 μg/ml. Ristocetin was then added at a concentration of 1.0 mg/ml. After incubation for o30 minutes at room temperature, bound and free vWF ligand were separated by centrifuging 50 μl of the mixture through 300 μl of 20% sucrose at 12,000 g for 4 minutes. The platelet pellet was then separated from the rest of the mixture to determine platelet-bound radioactivity. Nonspecific binding was defined as the residual binding of ^125 I-vWF in the presence of a 50-fold excess of unlabeled vWF but in the absence of any peptides.
Percent inhibition with a given peptide was calculated by dividing the specific cpm […].

In a further experiment the target is GPIb-IX (Homo sapiens, UniProt P04275). Briefly: biochemical.
Sequence of GPIb-IX (P04275 764-2813 limits assumed): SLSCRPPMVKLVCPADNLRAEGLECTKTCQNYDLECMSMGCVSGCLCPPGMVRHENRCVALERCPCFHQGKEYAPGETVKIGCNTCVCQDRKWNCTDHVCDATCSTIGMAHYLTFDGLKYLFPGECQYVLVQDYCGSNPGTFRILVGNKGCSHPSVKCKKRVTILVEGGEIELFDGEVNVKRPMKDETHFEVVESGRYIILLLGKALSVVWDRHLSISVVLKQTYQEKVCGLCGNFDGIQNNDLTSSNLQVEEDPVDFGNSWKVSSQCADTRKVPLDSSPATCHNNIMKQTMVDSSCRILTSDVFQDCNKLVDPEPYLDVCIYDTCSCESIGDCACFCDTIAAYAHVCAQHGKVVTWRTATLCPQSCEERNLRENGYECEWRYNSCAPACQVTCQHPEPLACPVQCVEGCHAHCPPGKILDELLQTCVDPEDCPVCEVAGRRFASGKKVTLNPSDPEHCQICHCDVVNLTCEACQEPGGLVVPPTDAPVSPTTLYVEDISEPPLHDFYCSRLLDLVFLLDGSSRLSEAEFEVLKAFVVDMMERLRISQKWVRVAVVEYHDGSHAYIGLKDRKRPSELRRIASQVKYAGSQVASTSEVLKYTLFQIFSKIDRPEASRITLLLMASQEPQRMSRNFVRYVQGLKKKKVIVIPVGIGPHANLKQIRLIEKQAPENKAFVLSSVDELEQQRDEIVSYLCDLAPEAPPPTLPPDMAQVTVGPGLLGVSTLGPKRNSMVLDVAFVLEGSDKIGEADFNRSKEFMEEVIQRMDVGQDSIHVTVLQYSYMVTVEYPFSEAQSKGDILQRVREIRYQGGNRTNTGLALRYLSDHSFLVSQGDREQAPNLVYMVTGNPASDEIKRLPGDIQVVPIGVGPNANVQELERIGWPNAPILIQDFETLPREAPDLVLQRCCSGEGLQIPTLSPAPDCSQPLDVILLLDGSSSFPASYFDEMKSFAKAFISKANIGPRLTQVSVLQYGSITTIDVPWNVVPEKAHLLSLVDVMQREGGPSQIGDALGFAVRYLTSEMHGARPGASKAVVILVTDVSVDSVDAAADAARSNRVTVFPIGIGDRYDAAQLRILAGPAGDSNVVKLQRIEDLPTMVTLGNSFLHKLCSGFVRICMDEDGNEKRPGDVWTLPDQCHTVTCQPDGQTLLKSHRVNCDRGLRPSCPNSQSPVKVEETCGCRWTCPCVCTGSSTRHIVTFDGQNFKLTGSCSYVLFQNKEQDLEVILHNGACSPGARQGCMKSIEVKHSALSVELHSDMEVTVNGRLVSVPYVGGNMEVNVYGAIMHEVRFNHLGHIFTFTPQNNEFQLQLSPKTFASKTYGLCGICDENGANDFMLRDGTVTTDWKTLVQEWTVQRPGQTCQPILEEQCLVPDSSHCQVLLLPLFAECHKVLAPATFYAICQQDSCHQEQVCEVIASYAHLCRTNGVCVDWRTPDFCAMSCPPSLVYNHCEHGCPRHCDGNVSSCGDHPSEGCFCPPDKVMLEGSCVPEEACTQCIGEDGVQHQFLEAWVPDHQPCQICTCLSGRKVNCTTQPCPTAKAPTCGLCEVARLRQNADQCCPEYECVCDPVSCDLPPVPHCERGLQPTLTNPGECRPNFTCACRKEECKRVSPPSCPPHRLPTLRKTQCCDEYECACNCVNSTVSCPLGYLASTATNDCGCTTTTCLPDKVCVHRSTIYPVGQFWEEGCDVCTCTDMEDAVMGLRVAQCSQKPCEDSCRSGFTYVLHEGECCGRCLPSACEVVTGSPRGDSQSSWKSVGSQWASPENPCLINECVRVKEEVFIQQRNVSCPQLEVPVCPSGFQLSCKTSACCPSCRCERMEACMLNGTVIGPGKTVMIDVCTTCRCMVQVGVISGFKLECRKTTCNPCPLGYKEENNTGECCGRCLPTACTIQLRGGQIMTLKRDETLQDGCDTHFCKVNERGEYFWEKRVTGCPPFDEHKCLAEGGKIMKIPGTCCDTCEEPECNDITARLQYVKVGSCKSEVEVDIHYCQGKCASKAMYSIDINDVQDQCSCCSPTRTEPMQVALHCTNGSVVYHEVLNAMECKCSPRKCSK
A further experiment deals with T2, GPIb-IX (Homo sapiens).
T2 construct: which utilizes washed platelets fixed with formaldehyde; endogenous in cells; host or cells: washed platelets fixed with formaldehyde
T2 sequence (P04275 764-2813 limits assumed): as above
The experiment is described as follows: Ristocetin-dependent 125I-vWF binding to formaldehyde-fixed washed platelets (Examples 5-7). The note with it: 125I-vWF 2 μg/ml; read-out: concentration that inhibits 50% of ristocetin-induced binding of vWF.

pIC50: −log10 of the molar value. Where no end group is shown, it is not given here.

T1 sequence (P07359 17-652): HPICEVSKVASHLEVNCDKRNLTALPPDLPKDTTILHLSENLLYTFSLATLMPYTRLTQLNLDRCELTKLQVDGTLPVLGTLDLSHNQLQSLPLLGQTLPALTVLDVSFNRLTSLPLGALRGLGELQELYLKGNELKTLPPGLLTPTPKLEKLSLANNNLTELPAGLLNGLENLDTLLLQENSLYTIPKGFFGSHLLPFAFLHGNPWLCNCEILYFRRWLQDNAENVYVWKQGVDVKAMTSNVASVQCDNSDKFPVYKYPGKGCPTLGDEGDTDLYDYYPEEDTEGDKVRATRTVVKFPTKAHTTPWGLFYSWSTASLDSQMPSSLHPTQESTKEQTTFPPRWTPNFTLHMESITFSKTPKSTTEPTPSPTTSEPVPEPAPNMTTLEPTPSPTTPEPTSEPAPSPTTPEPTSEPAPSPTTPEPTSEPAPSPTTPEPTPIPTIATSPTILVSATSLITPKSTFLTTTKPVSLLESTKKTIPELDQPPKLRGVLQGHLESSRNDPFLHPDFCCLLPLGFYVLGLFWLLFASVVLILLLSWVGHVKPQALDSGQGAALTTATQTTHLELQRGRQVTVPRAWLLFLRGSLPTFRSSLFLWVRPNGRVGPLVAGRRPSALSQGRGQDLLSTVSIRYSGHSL
T1 sequence (P04275 764-2813 limits assumed): as the sequence (P04275 764-2813 limits assumed) above
Experimental for GPIb-IX (Homo sapiens): Percent inhibition of binding of vWF to platelets was measured using I^125 labelled vWF prepared according to the methods of Ruggeri et al. See also DeMarco et al., J. Clin. Invest., 68, 321-328 (1981). Binding of vWF to platelets induced by ristocetin and/or botrocetin (and inhibition thereof) was measured according to the method of MacFarlane et al., Thromb. Diath. Haemorrh., 34, 306-308 (1975) which utilizes washed platelets fixed with formaldehyde. […] Each peptide, used at a final concentration of 500 μmol/l with a ^125 I-vWF concentration of 2 μg/ml, is identified by the same numeral used in the top part of the figure.
Further experiments were performed with a constant ^125 I-vWF concentration of 2 μg/ml and varying peptide concentration, as indicated on the FIG. 2 abscissa. […] One hundred percent binding was that measured in the presence of Hepes buffer instead of peptide.
Binding inhibition experiments were conducted analogous to those in Example 6 using an I^125 -vWF concentration of 2 μg/ml.

With PPDLPKDTT, the pIC50 on vWF-GPIb interaction [1] was below 3.30. In the case of PGLLTPTPKLEKLSL, on vWF-GPIb interaction [1], the pIC50 is at least 3.30. On to KRKRKRKRKR [(KR)5], for which the pIC50 is 5.77 at vWF-GPIb interaction [2] and 4.89 at vWF-GPIb interaction [3].

With KQGVDVKAMTSNVAS, the pIC50 at vWF-GPIb interaction [1] was at least 3.30. As for GDTDLYDYYPEEDTE [peptide 25], the pIC50 against GPIb-IX was 3.28; on vWF-GPIb interaction [1], at least 3.30; on GPIb-IX (Homo sapiens), 3.38. KRKRKRKRKRKRKR [(KR)7] showed a pIC50 at vWF-GPIb interaction [3] of 5.05. As for PPDLPKDTTILHLSE, the pIC50 at vWF-GPIb interaction [1] was at least 3.30. Still for that read-out and setting: as for DKRNLTALPPDLPKDTT, the figure is at least 3.30; as for EEDTEGDKVRATRTV, at least 3.30. The same measure, in the same setting: for EEDTE [EEDTE] the value was below 3.30.

Consider NLTALPPDLPKDTTI, for which the pIC50 at vWF-GPIb interaction [1] is at least 3.30.

The values above are taken from patent US5340727A, “GPIbα fragments and recombinant DNA expression vectors” (The Scripps Research Institute, priority 1990, dated 1994).
